Columns and labels:
[1] = LD50 acute toxicity, ddy mice, single abdominal injection; conditions: mouse, in vivo, ip, 5 ddy mice, 14 days observation, Behrens-Koerber's method
Excerpt: (§1) As used herein, the term "LD50 " denotes the acute toxicity. The term "ED50 " denotes the administered amount needed for reducing the volume of Sarcoma 180 solid tumours in animals to 50% of the corresponding tumour volume in control (untreated) animals. The term "WBC4000 " denotes the minimum dose of the drug needed to reduce the number of peripheral leucocytes to 4000/mm^3. A greater TI value results in a broader tolerance to the drug, which is advantageous for higher anti-tumour activity and decreased toxicity. The term "T" used herein denotes the average survival days of the test animals administered with the test compound. The term "C" denotes the average survival days of the control (untreated) animals. The term "OPD" denotes the dose of the drug resulting in the highest survival ratio. The term "ILS30 " denotes a 30% increase of life-span.
LD50, ED50 and WBC4000 were respectively determined as follows:
Each animal of the test group, consisting of 5 ddy mice, was administered once with a test compound by abdominal injection. […] To determine the LD50 value, Behrens-Koerber's method was applied.

Sarcoma 180 solid tumour = test: ED50 against Sarcoma 180 solid tumour implanted in mice; format: in vivo, male mouse (ddy strain); conditions: for (CI)c: (CI of test compound)/(CI of mitomycin C), CI = LD50/ED50; for ED50: Mus musculus, Sarcoma-180, iv, 168 h, i.v. (tail vein) 24 h after implantation, tumour volume at 7 days, dose for T/C of 0.5
Excerpt: With regard to the so-called chemotherapeutic index viz. the CI value against sarcoma 180 solid tumour, expressed by the formula: […]
as §1
the term (CI)c denotes (CI of the test compound)/(CI of mitomycin C), and
5×10^6 sarcoma 180 solid tumor cells were abdominally implanted into ddy mice. 7 days after this, ascites cells were sampled. The cells were washed once with a sterilized physiological saline and were used to prepare a cell suspension containing 5×10^7 cells per ml of a sterilized physiological saline. On each occasion, 0.1 ml of the cell suspension was subcutaneously implanted under the skin of the right armpit of a male mouse (ddy strain; body weight 20±2 g). The test compound which was dissolved in a physiological saline with or without addition of Tween 80 was injected into the tail vein of each animal of a group consisting of 5 mice at a dose of 0.1-0.2 ml 24 hours after the implantation of the tumor cells.
The anti-tumor activity was determined in the following manner:
7 days after the implantation, the major axis (a) and the minor axis (b) of the tumour were measured to calculate a value of (a×b^2)/2 which corresponds to the volume of the tumour. The antitumour activity was expressed by the ratio of the volume of the tumour (T) of the group of animals administered with the test compound to the corresponding volume of tumours (C) of the untreated animals.
On graph paper, T/C was plotted on the ordinate using an arithmetic scale and the administered amount of test compound was plotted on the abscissa using a logarithmic scale. The relationship between the dose and T/C was shown by a straight line determined by the method of least squares, from which ED50 viz. a dose corresponding to T/C of 0.5 was obtained.

[2] = system: lymphocytic Leukemia P-388; test: Anti-tumour activity against lymphocytic Leukemia P-388 in mice; format: in vivo, mouse, female of CDF strain; conditions: for (ILSmax)c: (ILSmax of test compound)/(ILSmax of mitomycin C), ILS=(T-C)/C×100; for (TI)c: (TI of test compound)/(TI of mitomycin C), TI = OPD/dose which results in ILS30; for ED (optimal dose, highest survival) / ED (30% increase of life-span): Mus musculus, P388, ip, i.p. 24 h after implantation; for ED (optimal dose, highest survival): dose resulting in the highest survival ratio, 30 days, read-out: OPD; for ED (30% increase of life-span): read-out: Dose needed to give ILS30
Excerpt: Also, their therapeutic indexes, expressed by the formula:
TI=(OPD)/(dose which results in ILS30),
against lymphocytic Leukemia P-388 and the maximum increased life spans (ILSmax), defined by the formula: […]
as §1
The experiment was carried out in the following manner. 1×10^6 lymphocytic Leukemia P-388 tumour cells were abdominally implanted into each mouse of a group consisting of 5 mice (body weight about 22 g; female of CDF strain). 24 hours after implantation, a physiological saline solution (0.2 ml) containing the test compound with or without addition of Tween 80 was abdominally given to the test animal.
Table 7 indicates anti-tumour activities of selected Compounds (I) against lyphocytic Leukemia P-388.

SMILES | LD50 at 336 h [1] [mg/kg] | (CI)c (Sarcoma 180 solid tumour) | ED50 (Sarcoma 180 solid tumour) [mg/kg] | (ILSmax)c [2] | (TI)c [2] | ED (optimal dose, highest survival) [2] [mg/kg] | ED (30% increase of life-span) [2] [mg/kg]
CNC(=O)SCCNC1=C(C)C(=O)C2=C(C1=O)[C@@H](COC(N)=O)[C@@]1(OC)[C@H]3N[C@H]3CN21 [Compound 1, 7-N--(2-methylaminocarbonylthioethyl)mitomycin C] | > 100 | > 1.39 | 25.8 | 1.44 | 1.33 | 25 | 0.78
CCN(CC)C(=O)SCCNC1=C(C)C(=O)C2=C(C1=O)[C@@H](COC(N)=O)[C@@]1(OC)[C@H]3N[C@H]3CN21 [Compound 4, 7-N--(2-diethylaminocarbonylthioethyl)mitomycin C] | 45 | 1.64 | 13.3 | > 1.21 | 1.18 | 25 | 2.02
CO[C@@]12[C@H](COC(N)=O)C3=C(C(=O)C(C)=C(NCCSC(=O)NC(C)(C)C)C3=O)N1C[C@@H]1N[C@@H]12 [Compound 5, 7-N--(2-t-butylaminocarbonylthioethyl)mitomicin C] | 30 | 1.22 | 8.8 | > 1.17 | 1.80 | 25 | 1.32
COC(=O)[C@@H]1CCCN1C(=O)SCCNC1=C(C)C(=O)C2=C(C1=O)[C@@H](COC(N)=O)[C@@]1(OC)[C@H]3N[C@H]3CN21 [Compound 6, 7-N--[2-((S)--2-methoxycarbonylpyrrolidino)carbonylthioethyl]mitomycin C] | > 50 | 1.77 | 10.1 | > 1.82 | 9.09 | 100 | 1.1
CO[C@@]12[C@H](COC(N)=O)C3=C(C(=O)C(C)=C(NCCSC(=O)NC(C)C)C3=O)N1C[C@@H]1N[C@@H]12 [Compound 7, 7-N--(2-isopropylaminocarbonylthioethyl)mitomycin C] | 45 | 2.29 | 7 | > 1.76 | 2.48 | 12.5 | 0.77
COC(=O)[C@@H](NC(=O)SCCNC1=C(C)C(=O)C2=C(C1=O)[C@@H](COC(N)=O)[C@@]1(OC)[C@H]3N[C@H]3CN21)C(C)C [Compound 9, 7-N--[2-((S)--1-methoxycarbonyl-2-methylpropyl)-aminocarbonylthioethyl]mitomycin C] | 37.5 | 0.81 | 15.9 | > 1.54 | 0.92 | 12.5 | 0.84
CCC(CC)NC(=O)SCCNC1=C(C)C(=O)C2=C(C1=O)[C@@H](COC(N)=O)[C@@]1(OC)[C@H]3N[C@H]3CN21 [Compound 11, 7-N--[2-(1-ethylpropyl)aminocarbonylthioethyl]mitomycin C] | 45 | 1.40 | 11.1 | > 1.47 | 1.86 | 25 | 1.04
CO[C@@]12[C@H](COC(N)=O)C3=C(C(=O)C(C)=C(NCCSC(=O)NC4CCN(Cc5ccccc5)CC4)C3=O)N1C[C@@H]1N[C@@H]12 [Compound 12, 7-N--[2-(1-benzylpiperidine-4-yl)aminocarbonylthioethyl]mitomycin C] | 37.5 | 1.61 | 8.1 | > 1.47 | > 1.10 | 12.5 | < 0.78
CO[C@@]12[C@H](COC(N)=O)C3=C(C(=O)C(C)=C(NCCSC(=O)NC(COCc4ccccc4)C(C)C)C3=O)N1C[C@@H]1N[C@@H]12 (stereo partly shown) [Compound 13] | 26.3 | 2.01 | 4.5 | > 2.57 | 1.96 | 7.5 | 0.33
CO[C@@]12[C@H](COC(N)=O)C3=C(C(=O)C(C)=C(NCCSC(=O)N4CCC[C@H]4C(=O)NCc4ccccc4)C3=O)N1C[C@@H]1N[C@@H]12 [Compound 14, 7-N--[2-((S)--2-benzylaminocarbonylpyrrolidino)-carbonylthioethyl]mitomycin C] | 75 | 2.23 | 13.6 | 1.44 | 0.93 | 50 | 3.46
CO[C@@]12[C@H](COC(N)=O)C3=C(C(=O)C(C)=C(NCCSC(=O)NCc4ccccc4)C3=O)N1C[C@@H]1N[C@@H]12 [Compound 22, 7-N--(2-benzylaminocarbonylthioethyl)mitomycin C] | 37.5 | 1.44 | 10.2 | 1.43 | 3.36 | 25 | 0.62
CCNC(=O)SCCNC1=C(C)C(=O)C2=C(C1=O)[C@@H](COC(N)=O)[C@@]1(OC)[C@H]3N[C@H]3CN21 [Compound 23, 7-N--(2-ethylaminocarbonylthioethyl)mitomycin C] | 52.5 | 2.48 | 8.3 | 1.16 | 3.28~1.64 | 25 | 0.33
CO[C@@]12[C@H](COC(N)=O)C3=C(C(=O)C(C)=C(NCCSC(=O)NCC(C)C)C3=O)N1C[C@@H]1N[C@@H]12 [Compound 24, 7-N--(2-isobutylaminocarbonylthioethyl)mitomycin C] | 22.5 | 0.89 | 9.9 | 1.26 | 2.16 | 25 | 0.5
CO[C@@]12[C@H](COC(N)=O)C3=C(C(=O)C(C)=C(NCCSC(=O)N4CCC[C@H]4C(=O)Nc4ccc(O)cc4)C3=O)N1C[C@@H]1N[C@@H]12 [Compound 45, 7-N--{2-[(S)--2-(4-hydroxyanilino)carbonylpiperidino]carbonylthioethyl}mitomycin C] | > 100 | > 0.51 | 89.1 |  |  |  | 
CO[C@@]12[C@H](COC(N)=O)C3=C(C(=O)C(C)=C(NCCSC(=O)NC(C(C)C)C(C)C)C3=O)N1C[C@@H]1N[C@@H]12 [Compound 46, 7-N--[2-(1-isopropyl-2-methylpropyl)aminocarbonylthioethyl]mitomycin C] | 37.5 | 1.27 | 12.5 |  |  |  | 
CO[C@@]12[C@H](COC(N)=O)C3=C(C(=O)C(C)=C(NCCSC(=O)NC(CO)C(C)C)C3=O)N1C[C@@H]1N[C@@H]12 (stereo partly shown) [Compound 48, 7-N--[2-(1-hydroxymethyl-2-methylpropyl)aminocarbonylthioethyl]mitomycin C] | 45 | 1.39 | 14.3 |  |  |  | 
CO[C@@]12[C@H](COC(N)=O)C3=C(C(=O)C(C)=C(NCCSC(=O)NCCc4ccccn4)C3=O)N1C[C@@H]1N[C@@H]12 [Compound 49, 7-N--[2-{2-(2-pyridyl)ethyl}aminocarbonylthioethyl]mitomycin C] | 75 | 1.57 | 22.8 |  |  |  | 
